Data reported in patent US11352362B2, “Polymorph of rucaparib camsylate” (SHANGHAI BEGREAT PHARMATECH, priority 2018, dated 2022).
Structures can show the parent of a compound that is named as a salt.

Key:
[1] = Solubility of rucaparib camsylate crystal forms in simulated gastric juice; format: physicochemical; settings: for Solubility under low pH conditions: such as pH 1.2; for Solubility in SGF: about 1 mg in 1 mL, shaking 20 min, filtered, HPLC
Procedure: Determination of the solubility of rucaparib camsylate in simulated gastric juice. Weigh about 1 mg of the powder of Form A, Form B, Form C and Form D of rucaparib camsylate in a 2-mL tube, then add 1 mL of simulated gastric juice (Prepared by adding diluted hydrochloric acid 16.4 ml, 800 ml of water and 10 g of pepsin. After shaking, add water to volume of 1000 ml). After shaking the suspension for 20 min, it was filtered through a needle filter to obtain a clear solution. The rucaparib camsylate content in the solution was analyzed by HPLC method.

[2] = Stress stability of crystal form D (XRPD evaluation); format: physicochemical
Procedure: In order to evaluate the physical stability of the crystal form D, experiments on the stress stability for the crystal form D were performed. The physical stability of the crystal form D under high temperature, high humidity and light stress conditions was investigated. The experimental conditions of the stress stability are as follows: [table] The crystal form D was placed in the above stress conditions. After sampling at the time point, the stability sample was evaluated by XRPD.

Solubility under low pH conditions [1]	Solubility in SGF ([1]; simulated gastric juice)	Solubility at 20 minutes compared with existing crystalline forms A, B and C ([1]; simulated gastric juice, low pH, 20 minutes)	Crystal form by XRPD after stress ([2]; Elevate temperature 60° C., 5 day)	Crystal form by XRPD after stress ([2]; Elevate temperature 60° C., 10 day)	Crystal form by XRPD after stress ([2]; High humidity 92.5% RH, 5 day)	Crystal form by XRPD after stress ([2]; High humidity 92.5% RH, 10 day)	Crystal form by XRPD after stress ([2]; Light stress 4500 lux, 5 day)	Crystal form by XRPD after stress ([2]; Light stress 4500 lux, 10 day)	Physical stability under stress conditions ([2]; high temperature, high humidity and light stress conditions)	SMILES
low solubility	100 µg/mL	–	–	–	–	–	–	–	–	CNCc1ccc(-c2[nH]c3cc(F)cc4c3c2CCNC4=O)cc1 [Form A, 8-fluoro-2-{4-[(methylamino)methyl]phenyl}-1,3,4,5-tetrahydro-6H-azepino[5,4,3-cd]indol-6-one ((1S,4R)-7,7-dimethyl-2-oxobicyclo[2.2.1]hept-1-yl) methanesulfonic acid salt]
low solubility	130 µg/mL	–	–	–	–	–	–	–	–	CNCc1ccc(-c2[nH]c3cc(F)cc4c3c2CCNC4=O)cc1 [Form B, 8-fluoro-2-{4-[(methylamino)methyl]phenyl}-1,3,4,5-tetrahydro-6H-azepino[5,4,3-cd]indol-6-one ((1S,4R)-7,7-dimethyl-2-oxobicyclo[2.2.1]hept-1-yl) methanesulfonic acid salt]
low solubility	110 µg/mL	–	–	–	–	–	–	–	–	CNCc1ccc(-c2[nH]c3cc(F)cc4c3c2CCNC4=O)cc1 [Form C, 8-fluoro-2-{4-[(methylamino)methyl]phenyl}-1,3,4,5-tetrahydro-6H-azepino[5,4,3-cd]indol-6-one ((1S,4R)-7,7-dimethyl-2-oxobicyclo[2.2.1]hept-1-yl) methanesulfonic acid salt]
–	310 µg/mL	significantly higher	Form D	Form D	Form D	Form D	Form D	Form D	stable	CNCc1ccc(-c2[nH]c3cc(F)cc4c3c2CCNC4=O)cc1 [Form D, 8-fluoro-2-{4-[(methylamino)methyl]phenyl}-1,3,4,5-tetrahydro-6H-azepino[5,4,3-cd]indol-6-one ((1S,4R)-7,7-dimethyl-2-oxobicyclo[2.2.1]hept-1-yl) methanesulfonic acid salt]
